Each block holds one compound with its values, some of them ahead of it.
System: 874868-142-R-J2-PDC complex spheroids, growth % test/control
Assay: Anticancer human tumor 874868-142-R-J2-PDC patient-derived head and neck squamous carcinoma cell line growth inhibition [CLK]
Settings: for IC50: curve of first compound; for viability, T/C: stronger effect = lower value
Method in brief: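 Patient-derived tumor cells grown as complex spheroids with HUVEC endothelial cells and mesenchymal stem cells, treated with drug combinations. Concentrations descend in half-log steps from near clinical Cmax, or from 10 microM if Cmax unknown.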

[1] = second compound 0.0316 µM, first compound 0.0316 µM
[2] = second compound 0.0316 µM, first compound 0.1 µM
[3] = second compound 0.0316 µM, first compound 0.316 µM
[4] = second compound 0.0316 µM, first compound 1 µM
[5] = second compound 0.0316 µM, first compound 3.16 µM
[6] = second compound 0.0316 µM, first compound 10 µM
[7] = second compound 0.1 µM, first compound 0.0316 µM
[8] = second compound 0.1 µM, first compound 0.1 µM
[9] = second compound 0.1 µM, first compound 0.316 µM
[10] = second compound 0.1 µM, first compound 1 µM
[11] = second compound 0.1 µM, first compound 3.16 µM
[12] = second compound 0.1 µM, first compound 10 µM
[13] = second compound 0.316 µM, first compound 0.0316 µM
[14] = second compound 0.316 µM, first compound 0.1 µM
[15] = second compound 0.316 µM, first compound 0.316 µM
[16] = second compound 0.316 µM, first compound 1 µM
[17] = second compound 0.316 µM, first compound 3.16 µM
[18] = second compound 0.316 µM, first compound 10 µM
[19] = second compound 1 µM, first compound 0.0316 µM
[20] = second compound 1 µM, first compound 0.1 µM
[21] = second compound 1 µM, first compound 0.316 µM
[22] = second compound 1 µM, first compound 1 µM
[23] = second compound 1 µM, first compound 3.16 µM
[24] = second compound 1 µM, first compound 10 µM
[25] = second compound 3.16 µM, first compound 0.0316 µM
[26] = second compound 3.16 µM, first compound 0.1 µM
[27] = second compound 3.16 µM, first compound 0.316 µM
[28] = second compound 3.16 µM, first compound 1 µM
[29] = second compound 3.16 µM, first compound 3.16 µM
[30] = second compound 3.16 µM, first compound 10 µM
[31] = second compound 10 µM, first compound 0.0316 µM
[32] = second compound 10 µM, first compound 0.1 µM
[33] = second compound 10 µM, first compound 0.316 µM
[34] = second compound 10 µM, first compound 1 µM
[35] = second compound 10 µM, first compound 3.16 µM
[36] = second compound 10 µM, first compound 10 µM
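Note: spheroids exposed to the compounds for 7 days.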
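Throughout, for viability, T/C: 100% = DMSO vehicle control viability.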

Compound: CC(=O)O[C@H]1C(=O)[C@@]2(C)[C@H]([C@H](OC(=O)c3ccccc3)[C@]3(O)C[C@H](OC(=O)[C@H](O)[C@@H](NC(=O)c4ccccc4)c4ccccc4)C(C)=C1C3(C)C)[C@]1(OC(C)=O)CO[C@@H]1C[C@@H]2O + CNC(=O)c1ccc(Nc2nc(OC3CCCC3)c3c(-c4ccc5nc(C)oc5c4)c[nH]c3n2)c(OC)c1
IC50 (second compound 0.0316 µM): < 0.0316 µM
IC50 (second compound 0.1 µM): < 0.0316 µM
IC50 (second compound 0.316 µM): > 10 µM
IC50 (second compound 1 µM): < 0.0316 µM
IC50 (second compound 3.16 µM): < 0.0316 µM
IC50 (second compound 10 µM): < 0.0316 µM
viability, T/C [1]: 47.4%
viability, T/C [2]: 33.5%
viability, T/C [3]: 39.4%
viability, T/C [4]: 41.9%
viability, T/C [5]: 48.9%
viability, T/C [6]: 66.2%
viability, T/C [7]: 53.9%
viability, T/C [8]: 43.9%
viability, T/C [9]: 50%
viability, T/C [10]: 55.7%
viability, T/C [11]: 62.7%
viability, T/C [12]: 66.5%
viability, T/C [13]: 54.3%
viability, T/C [14]: 65.1%
viability, T/C [15]: 72.6%
viability, T/C [16]: 66.5%
viability, T/C [17]: 77.6%
viability, T/C [18]: 70.1%
viability, T/C [19]: 47.1%
viability, T/C [20]: 49.9%
viability, T/C [21]: 53%
viability, T/C [22]: 62.3%
viability, T/C [23]: 52.6%
viability, T/C [24]: 61.9%
viability, T/C [25]: 47.8%
viability, T/C [26]: 45.7%
viability, T/C [27]: 52.4%
viability, T/C [28]: 51%
viability, T/C [29]: 57.5%
viability, T/C [30]: 64.3%
viability, T/C [31]: 43.7%
viability, T/C [32]: 53%
viability, T/C [33]: 58.3%
viability, T/C [34]: 52.4%
viability, T/C [35]: 57.6%
viability, T/C [36]: 50.5%

Compound: CCc1c2c(nc3ccc(O)cc13)-c1cc3c(c(=O)n1C2)COC(=O)[C@]3(O)CC + CNC(=O)c1ccc(Nc2nc(OC3CCCC3)c3c(-c4ccc5nc(C)oc5c4)c[nH]c3n2)c(OC)c1
IC50 (second compound 0.0316 µM): 0.0118 µM
IC50 (second compound 0.1 µM): 0.00398 µM
IC50 (second compound 0.316 µM): < 0.00316 µM
IC50 (second compound 1 µM): < 0.00316 µM
IC50 (second compound 3.16 µM): < 0.00316 µM
IC50 (second compound 10 µM): < 0.00316 µM
viability, T/C (second compound 0.0316 µM, first compound 0.00316 µM): 63.6%
viability, T/C (second compound 0.0316 µM, first compound 0.01 µM): 44%
viability, T/C [1]: 47.1%
viability, T/C [2]: 28%
viability, T/C [3]: 11.6%
viability, T/C [4]: 2.44%
viability, T/C (second compound 0.1 µM, first compound 0.00316 µM): 50.4%
viability, T/C (second compound 0.1 µM, first compound 0.01 µM): 47.8%
viability, T/C [7]: 35.7%
viability, T/C [8]: 28.2%
viability, T/C [9]: 16.6%
viability, T/C [10]: 2.97%
viability, T/C (second compound 0.316 µM, first compound 0.00316 µM): 42.9%
viability, T/C (second compound 0.316 µM, first compound 0.01 µM): 37.9%
viability, T/C [13]: 34.4%
viability, T/C [14]: 19.6%
viability, T/C [15]: 11.3%
viability, T/C [16]: 4.87%
viability, T/C (second compound 1 µM, first compound 0.00316 µM): 31%
viability, T/C (second compound 1 µM, first compound 0.01 µM): 26.8%
viability, T/C [19]: 15.1%
viability, T/C [20]: 11.6%
viability, T/C [21]: 7.96%
viability, T/C [22]: 1.98%
viability, T/C (second compound 3.16 µM, first compound 0.00316 µM): 24.7%
viability, T/C (second compound 3.16 µM, first compound 0.01 µM): 20.7%
viability, T/C [25]: 15.3%
viability, T/C [26]: 12.4%
viability, T/C [27]: 12.8%
viability, T/C [28]: 4.03%
viability, T/C (second compound 10 µM, first compound 0.00316 µM): 28.8%
viability, T/C (second compound 10 µM, first compound 0.01 µM): 21.6%
viability, T/C [31]: 14%
viability, T/C [32]: 11.2%
viability, T/C [33]: 9.57%
viability, T/C [34]: 9.34%

Compound: COc1cccc2c1C(=O)c1c(O)c3c(c(O)c1C2=O)CC(O)(C(=O)CO)CC3OC1CC(N)C(O)C(C)O1 (stereo not given) + CNC(=O)c1ccc(Nc2nc(OC3CCCC3)c3c(-c4ccc5nc(C)oc5c4)c[nH]c3n2)c(OC)c1
IC50 (second compound 0.0316 µM): 0.0739 µM
IC50 (second compound 0.1 µM): 0.0856 µM
IC50 (second compound 0.316 µM): 0.0472 µM
IC50 (second compound 1 µM): < 0.0316 µM
IC50 (second compound 3.16 µM): < 0.0316 µM
IC50 (second compound 10 µM): < 0.0316 µM
viability, T/C [1]: 65.8%
viability, T/C [2]: 40.8%
viability, T/C [3]: 29.2%
viability, T/C [4]: 1.04%
viability, T/C [5]: 0.15%
viability, T/C [6]: 0.15%
viability, T/C [7]: 66.7%
viability, T/C [8]: 45.7%
viability, T/C [9]: 23.5%
viability, T/C [10]: 0.86%
viability, T/C [11]: 0.16%
viability, T/C [12]: 3.76%
viability, T/C [13]: 55.9%
viability, T/C [14]: 38.6%
viability, T/C [15]: 16.9%
viability, T/C [16]: 0.22%
viability, T/C [17]: 0.17%
viability, T/C [18]: 6.83%
viability, T/C [19]: 32.1%
viability, T/C [20]: 28.1%
viability, T/C [21]: 17.6%
viability, T/C [22]: 0.21%
viability, T/C [23]: 1.61%
viability, T/C [24]: 0.16%
viability, T/C [25]: 33.2%
viability, T/C [26]: 27.8%
viability, T/C [27]: 13.3%
viability, T/C [28]: 0.19%
viability, T/C [29]: 1.44%
viability, T/C [30]: 11.7%
viability, T/C [31]: 28.5%
viability, T/C [32]: 30.5%
viability, T/C [33]: 15.8%
viability, T/C [34]: 0.27%
viability, T/C [35]: 3.05%
viability, T/C [36]: 5.77%

Second part, led by results:

IC50 (second compound 0.0316 µM): 0.646 µM
IC50 (second compound 0.1 µM): 0.518 µM
IC50 (second compound 0.316 µM): 0.162 µM
IC50 (second compound 1 µM): < 0.0316 µM
IC50 (second compound 3.16 µM): < 0.0316 µM
IC50 (second compound 10 µM): < 0.0316 µM
Compound: Nc1ccn(C2OC(CO)C(O)C2(F)F)c(=O)n1 (stereo not given) + CNC(=O)c1ccc(Nc2nc(OC3CCCC3)c3c(-c4ccc5nc(C)oc5c4)c[nH]c3n2)c(OC)c1
viability, T/C [1]: 108%
viability, T/C [2]: 80.2%
viability, T/C [3]: 56.3%
viability, T/C [4]: 46.7%
viability, T/C [5]: 41.6%
viability, T/C [6]: 43.5%
viability, T/C [7]: 80.6%
viability, T/C [8]: 97.9%
viability, T/C [9]: 57.8%
viability, T/C [10]: 42.3%
viability, T/C [11]: 42.9%
viability, T/C [12]: 33.8%
viability, T/C [13]: 56.4%
viability, T/C [14]: 53.7%
viability, T/C [15]: 48%
viability, T/C [16]: 35.3%
viability, T/C [17]: 35%
viability, T/C [18]: 22.3%
viability, T/C [19]: 42.9%
viability, T/C [20]: 37.5%
viability, T/C [21]: 33.6%
viability, T/C [22]: 23.1%
viability, T/C [23]: 26.2%
viability, T/C [24]: 18%
viability, T/C [25]: 40%
viability, T/C [26]: 42.1%
viability, T/C [27]: 30.3%
viability, T/C [28]: 23.8%
viability, T/C [29]: 22.7%
viability, T/C [30]: 16.5%
viability, T/C [31]: 39.2%
viability, T/C [32]: 36.8%
viability, T/C [33]: 33.7%
viability, T/C [34]: 25.5%
viability, T/C [35]: 19.4%
viability, T/C [36]: 23.1%

IC50 (second compound 0.0316 µM): > 10 µM
IC50 (second compound 0.1 µM): 2.01 µM
IC50 (second compound 0.316 µM): 0.461 µM
IC50 (second compound 1 µM): < 0.0316 µM
IC50 (second compound 3.16 µM): < 0.0316 µM
IC50 (second compound 10 µM): < 0.0316 µM
Compound: O=c1[nH]cc(F)c(=O)[nH]1 + CNC(=O)c1ccc(Nc2nc(OC3CCCC3)c3c(-c4ccc5nc(C)oc5c4)c[nH]c3n2)c(OC)c1
viability, T/C [1]: 81.8%
viability, T/C [2]: 86%
viability, T/C [3]: 71.7%
viability, T/C [4]: 61.1%
viability, T/C [5]: 54.7%
viability, T/C [6]: 50.7%
viability, T/C [7]: 74%
viability, T/C [8]: 68.9%
viability, T/C [9]: 75.8%
viability, T/C [10]: 56.4%
viability, T/C [11]: 50.2%
viability, T/C [12]: 41.5%
viability, T/C [13]: 54%
viability, T/C [14]: 59.2%
viability, T/C [15]: 55.9%
viability, T/C [16]: 34.9%
viability, T/C [17]: 39.4%
viability, T/C [18]: 39.2%
viability, T/C [19]: 43.5%
viability, T/C [20]: 48.6%
viability, T/C [21]: 40.1%
viability, T/C [22]: 29.4%
viability, T/C [23]: 30.1%
viability, T/C [24]: 26%
viability, T/C [25]: 34.9%
viability, T/C [26]: 39.7%
viability, T/C [27]: 29%
viability, T/C [28]: 28.4%
viability, T/C [29]: 28.7%
viability, T/C [30]: 31.9%
viability, T/C [31]: 40.2%
viability, T/C [32]: 46%
viability, T/C [33]: 35.9%
viability, T/C [34]: 23.4%
viability, T/C [35]: 30.8%
viability, T/C [36]: 23.2%

Reference: PubChem BioAssay AID2060601 (Molecular Pharmacology Branch, DTP, NCI, 2025)
